# pIC50: −log10 of the molar value.
# Experiments:
# [1] = target: Fibroblast growth factor receptor 1 (Homo sapiens, UniProt P11362); test: Inhibition of recombinant FGFR1 (unknown origin) using poly (Glu, Tyr) 4:1 as substrate after 60 mins by ELISA based spectrophotometric method
# [2] = test system: KG-1; test: Antiproliferative activity against human KG1 cells expressing FGFR1 after 72 hrs; assay type: functional, cell-based; conditions: KG-1, 72 h
# [3] = test system: SNU-16; conditions: Homo sapiens
# Description: Antitumor activity against human SNU16 cells xenografted in nude mouse assessed as tumor growth inhibition administered ip qd for 21 consecutive days and measured twice per week
# [4] = Antiproliferative activity against human UM-UC-14 cells expressing FGFR3 after 72 hrs; assay type: functional, cell-based; conditions: UMUC14, 72 h
# [5] = test system: RT-112; test: Antiproliferative activity against human RT112 cells expressing FGFR3 after 72 hrs; assay type: functional, cell-based; conditions: RT-112, 72 h
# [6] = test system: BaF3; test: Antiproliferative activity against mouse BAF3 cells expressing VEGFR2 after 72 hrs; assay type: functional, cell-based; conditions: BaF3, 72 h
# [7] = test system: SNU-16; test: Antiproliferative activity against human SNU16 cells expressing FGFR2 after 72 hrs; assay type: functional, cell-based; conditions: SNU-16, 72 h
# [8] = test system: NCI-H1581; test: Antiproliferative activity against human NCI-H1581 cells expressing FGFR1 after 72 hrs; assay type: functional, cell-based; conditions: NCI-H1581, 72 h
# [9] = target: T1, Fibroblast growth factor receptor 3 (Homo sapiens, UniProt P22607); test: Inhibition of recombinant FGFR3 (unknown origin) using poly (Glu, Tyr) 4:1 as substrate after 60 mins by ELISA based spectrophotometric method
# [10] = Clearance in Sprague-Dawley rat at 1 mg/kg, iv by LC-MS/MS analysis; assay type: ADME, organism-based; conditions: in vivo
# [11] = Half life in Sprague-Dawley rat at 1 mg/kg, iv by LC-MS/MS analysis; assay type: ADME, organism-based; conditions: in vivo
# [12] = Volume of distribution at steady state in Sprague-Dawley rat at 1 mg/kg, iv by LC-MS/MS analysis; assay type: ADME, organism-based; conditions: in vivo, read-out: Vdss
# [13] = AUClast in Sprague-Dawley rat at 1 mg/kg, iv by LC-MS/MS analysis; assay type: ADME, organism-based; set-up: dose 1 mg/kg, time 0 - last, route intravenous; conditions: in vivo
# [14] = AUClast in Sprague-Dawley rat at 3 mg/kg, po administered via gavage by LC-MS/MS analysis; assay type: ADME, organism-based; set-up: dose 3 mg/kg, time 0 - last, route oral; conditions: in vivo
# [15] = target: Fibroblast growth factor receptor 2 (Homo sapiens, UniProt P21802); test: Inhibition of recombinant FGFR2 (unknown origin) using poly (Glu, Tyr) 4:1 as substrate after 60 mins by ELISA based spectrophotometric method
# [16] = Oral bioavailability in Sprague-Dawley rat at 3 mg/kg administered via gavage by LC-MS/MS analysis; assay type: ADME, organism-based; conditions: in vivo
# [17] = AUCinfinity in Sprague-Dawley rat at 1 mg/kg, iv by LC-MS/MS analysis; assay type: ADME, organism-based; set-up: dose 1 mg/kg, route intravenous, time infinity; conditions: in vivo
# [18] = Half life in Sprague-Dawley rat at 3 mg/kg, po administered via gavage by LC-MS/MS analysis; assay type: ADME, organism-based; conditions: in vivo
# [19] = target: Vascular endothelial growth factor receptor 2 (Homo sapiens, UniProt P35968); test: Inhibition of recombinant VEGFR2 (unknown origin) using poly (Glu, Tyr) 4:1 as substrate after 60 mins by ELISA based spectrophotometric method
# [20] = AUCinfinity in Sprague-Dawley rat at 3 mg/kg, po administered via gavage by LC-MS/MS analysis; assay type: ADME, organism-based; set-up: dose 3 mg/kg, time infinity, route oral; conditions: in vivo
# [21] = target: T1, Fibroblast growth factor receptor 3; test: Inhibition of FGFR3 (unknown origin)
# [22] = Aqueous solubility of the compound; assay type: physicochemical; conditions: buffer
# [23] = test system: SNU-16; test: Antitumor activity against human SNU16 cells xenografted in nude mouse assessed as tumor growth inhibition at 50 mg/kg, ip qd administered for 21 consecutive days and measured twice per week relative to control; assay type: functional; conditions: SNU-16, ip, read-out: TGI
# [24] = test system: Mus musculus; test: Toxicity in nude mouse xenografted with human SNU16 cells assessed as body weight loss at 10 to 50 mg/kg, ip qd administered for 21 consecutive days and measured twice per week; assay type: organism-based; conditions: in vivo
# [25] = test system: SNU-16; test: Antitumor activity against human SNU16 cells xenografted in nude mouse assessed as tumor growth inhibition at 10 mg/kg, ip qd administered for 21 consecutive days and measured twice per week relative to control; assay type: functional; conditions: SNU-16, ip, read-out: TGI
# Fibroblast growth factor receptor 1, sequence (P11362 whole entry): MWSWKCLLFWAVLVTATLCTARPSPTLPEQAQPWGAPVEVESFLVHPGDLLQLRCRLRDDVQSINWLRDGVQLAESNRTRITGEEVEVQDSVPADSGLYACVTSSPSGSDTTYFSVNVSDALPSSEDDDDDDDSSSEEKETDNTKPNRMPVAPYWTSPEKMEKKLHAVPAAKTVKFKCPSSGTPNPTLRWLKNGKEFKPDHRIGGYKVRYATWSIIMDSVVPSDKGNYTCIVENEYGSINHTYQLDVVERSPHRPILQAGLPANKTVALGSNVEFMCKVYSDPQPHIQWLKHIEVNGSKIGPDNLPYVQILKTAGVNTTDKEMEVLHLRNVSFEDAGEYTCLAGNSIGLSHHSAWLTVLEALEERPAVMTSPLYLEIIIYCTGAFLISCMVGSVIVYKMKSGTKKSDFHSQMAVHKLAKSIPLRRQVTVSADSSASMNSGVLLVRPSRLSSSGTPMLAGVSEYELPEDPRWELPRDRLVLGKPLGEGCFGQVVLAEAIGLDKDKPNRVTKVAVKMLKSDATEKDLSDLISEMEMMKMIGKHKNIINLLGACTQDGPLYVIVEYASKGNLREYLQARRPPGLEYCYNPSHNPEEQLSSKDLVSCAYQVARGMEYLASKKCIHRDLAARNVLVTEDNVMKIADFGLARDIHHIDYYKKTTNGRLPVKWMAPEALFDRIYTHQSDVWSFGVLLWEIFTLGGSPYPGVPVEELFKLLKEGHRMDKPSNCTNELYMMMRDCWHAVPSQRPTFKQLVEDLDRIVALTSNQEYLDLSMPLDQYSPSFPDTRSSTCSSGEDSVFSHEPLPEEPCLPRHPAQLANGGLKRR
# T1 sequence (P22607 whole entry): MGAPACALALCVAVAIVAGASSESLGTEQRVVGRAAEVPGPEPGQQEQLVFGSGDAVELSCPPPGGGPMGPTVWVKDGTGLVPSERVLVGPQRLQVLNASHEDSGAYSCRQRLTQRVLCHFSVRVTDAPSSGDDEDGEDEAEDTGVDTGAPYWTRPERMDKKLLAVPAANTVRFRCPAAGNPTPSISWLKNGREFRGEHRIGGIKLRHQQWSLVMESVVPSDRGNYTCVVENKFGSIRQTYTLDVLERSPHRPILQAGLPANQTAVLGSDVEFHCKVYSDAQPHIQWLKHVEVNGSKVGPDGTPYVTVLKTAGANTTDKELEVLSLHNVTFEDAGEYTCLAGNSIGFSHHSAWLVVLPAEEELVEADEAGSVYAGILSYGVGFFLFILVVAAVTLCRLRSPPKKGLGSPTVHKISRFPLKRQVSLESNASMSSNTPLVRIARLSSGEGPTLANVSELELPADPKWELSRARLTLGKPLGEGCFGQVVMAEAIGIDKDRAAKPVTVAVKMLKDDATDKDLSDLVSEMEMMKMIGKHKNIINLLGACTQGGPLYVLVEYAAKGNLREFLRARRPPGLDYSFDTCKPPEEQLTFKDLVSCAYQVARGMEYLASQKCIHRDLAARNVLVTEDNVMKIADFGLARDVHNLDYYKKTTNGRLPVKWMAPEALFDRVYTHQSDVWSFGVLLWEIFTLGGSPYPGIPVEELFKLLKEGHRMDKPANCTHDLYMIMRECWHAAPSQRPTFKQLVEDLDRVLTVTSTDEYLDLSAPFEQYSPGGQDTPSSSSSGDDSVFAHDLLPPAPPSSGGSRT
# Vascular endothelial growth factor receptor 2, sequence (P35968 whole entry): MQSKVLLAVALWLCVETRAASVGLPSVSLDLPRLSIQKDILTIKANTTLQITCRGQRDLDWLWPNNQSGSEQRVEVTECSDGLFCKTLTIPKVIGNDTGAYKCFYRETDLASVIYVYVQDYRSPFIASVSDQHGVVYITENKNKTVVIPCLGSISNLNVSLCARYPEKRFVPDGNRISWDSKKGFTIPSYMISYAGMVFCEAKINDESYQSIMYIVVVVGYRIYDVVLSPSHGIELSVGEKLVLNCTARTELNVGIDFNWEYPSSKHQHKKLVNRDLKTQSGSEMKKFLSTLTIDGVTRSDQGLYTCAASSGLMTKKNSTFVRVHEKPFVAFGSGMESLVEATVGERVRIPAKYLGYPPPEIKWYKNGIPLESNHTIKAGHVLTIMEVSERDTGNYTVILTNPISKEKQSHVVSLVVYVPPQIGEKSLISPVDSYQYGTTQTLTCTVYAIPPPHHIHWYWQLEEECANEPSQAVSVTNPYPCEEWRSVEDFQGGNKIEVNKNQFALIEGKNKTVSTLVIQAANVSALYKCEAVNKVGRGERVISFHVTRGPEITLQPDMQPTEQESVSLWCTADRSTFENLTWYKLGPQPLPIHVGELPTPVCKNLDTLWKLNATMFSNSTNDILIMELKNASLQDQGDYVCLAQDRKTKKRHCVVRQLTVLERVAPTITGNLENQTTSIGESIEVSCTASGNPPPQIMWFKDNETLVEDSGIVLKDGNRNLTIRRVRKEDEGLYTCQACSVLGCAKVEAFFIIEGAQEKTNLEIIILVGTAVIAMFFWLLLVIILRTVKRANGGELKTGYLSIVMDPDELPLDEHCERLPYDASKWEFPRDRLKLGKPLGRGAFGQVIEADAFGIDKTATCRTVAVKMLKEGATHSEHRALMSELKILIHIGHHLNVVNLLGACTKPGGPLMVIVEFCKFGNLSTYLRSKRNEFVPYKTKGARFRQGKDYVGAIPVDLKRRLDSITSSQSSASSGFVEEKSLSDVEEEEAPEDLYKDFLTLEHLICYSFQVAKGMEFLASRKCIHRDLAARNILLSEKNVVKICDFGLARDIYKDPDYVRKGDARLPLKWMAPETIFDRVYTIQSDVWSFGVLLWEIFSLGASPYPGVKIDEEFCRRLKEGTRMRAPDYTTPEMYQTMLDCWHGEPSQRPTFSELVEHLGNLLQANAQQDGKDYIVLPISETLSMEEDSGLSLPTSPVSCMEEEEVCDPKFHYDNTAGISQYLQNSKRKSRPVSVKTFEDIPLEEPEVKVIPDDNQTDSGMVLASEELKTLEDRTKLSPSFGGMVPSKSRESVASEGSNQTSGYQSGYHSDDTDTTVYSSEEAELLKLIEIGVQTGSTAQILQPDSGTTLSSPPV
# Fibroblast growth factor receptor 2, sequence (P21802 whole entry): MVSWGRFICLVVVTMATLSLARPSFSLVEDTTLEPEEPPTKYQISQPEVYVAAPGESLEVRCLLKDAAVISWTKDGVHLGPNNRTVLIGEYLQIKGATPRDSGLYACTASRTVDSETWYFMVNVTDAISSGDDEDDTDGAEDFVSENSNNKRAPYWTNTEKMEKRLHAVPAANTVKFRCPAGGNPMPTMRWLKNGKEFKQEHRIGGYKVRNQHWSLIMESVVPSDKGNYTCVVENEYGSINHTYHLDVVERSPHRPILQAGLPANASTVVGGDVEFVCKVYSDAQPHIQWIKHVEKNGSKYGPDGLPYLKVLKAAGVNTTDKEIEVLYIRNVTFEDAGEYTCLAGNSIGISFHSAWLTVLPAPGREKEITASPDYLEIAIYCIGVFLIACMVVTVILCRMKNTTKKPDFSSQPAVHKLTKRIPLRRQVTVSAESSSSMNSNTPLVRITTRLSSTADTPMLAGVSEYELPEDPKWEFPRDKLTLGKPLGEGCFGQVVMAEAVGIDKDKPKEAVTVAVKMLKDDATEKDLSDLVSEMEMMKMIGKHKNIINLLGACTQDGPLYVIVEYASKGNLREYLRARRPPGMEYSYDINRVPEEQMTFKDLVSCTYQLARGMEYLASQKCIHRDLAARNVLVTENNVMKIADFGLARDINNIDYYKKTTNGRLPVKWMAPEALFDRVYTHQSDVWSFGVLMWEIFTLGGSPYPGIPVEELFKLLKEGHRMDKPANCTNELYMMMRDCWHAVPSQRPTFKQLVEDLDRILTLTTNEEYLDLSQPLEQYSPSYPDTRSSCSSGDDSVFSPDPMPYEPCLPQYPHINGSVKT
SMILES,pIC50 [1],pIC50 [2],further results
CC(Oc1ccc(NC(=O)c2ccc(N3C[C@@H](C)N[C@@H](C)C3)cc2)nc1)c1c(Cl)cncc1Cl (some centres undefined),< 6.00,–,–
CNC(=O)c1cccc2cc(Oc3ccnc(NC(=O)c4cnn(CCO)c4)c3)ccc12,7.63,6.56,–
CNC(=O)c1cccc2cc(Oc3ccnc(NC(=O)c4ccc(N5C[C@@H](C)N[C@@H](C)C5)cc4C)c3)ccc12,7.89,< 6.00,–
COc1cc(OC)c(F)c(COc2ccc(NC(=O)c3ccc(N4C[C@@H](C)N[C@@H](C)C4)cc3)nc2)c1F,7.65,6.94,–
CNC(=O)c1cccc2cc(Oc3ccnc(NC(=O)c4ccc(N5CCN(C)CC5)cc4)c3)ccc12 [listing 1 of 2 here],–,–,TGI [3]: Dose-dependent effect
CNC(=O)c1cccc2cc(Oc3ccnc(NC(=O)c4ccc(C5CCN(CCO)CC5)cc4)c3)ccc12,8.92,> 8.39,–
COc1cc(CCc2cc(NC(=O)c3ccc(N4C[C@@H](C)N[C@@H](C)C4)cc3)n[nH]2)cc(OC)c1 [FEXAGRATINIB],–,8.06 to 8.72,pIC50 [4]: 7.57; pIC50 [5]: 7.08; pIC50 [6]: 6.65; pIC50 [7]: 8.21; pIC50 [8]: 7.40
COc1cc(OC)c(Cl)c(CCOc2ccnc(NC(=O)c3ccc(N4C[C@@H](C)N[C@@H](C)C4)cc3)c2)c1Cl,< 6.00,–,–
CCNC(=O)Nc1ccc(Oc2ccnc(NC(=O)c3ccc(N4C[C@@H](C)N[C@@H](C)C4)cc3)c2)c(OC)c1,7.44,6.26,–
CNC(=O)c1cccc2cc(Oc3ccnc(NC(=O)c4ccc(N5CCN(C)CC5)cc4)c3)ccc12 [listing 2 of 2 here],–,> 9.30,pIC50 [9]: 7.97; clearance [10]: 346 mL/min/kg; pIC50 [4]: 8.77; pIC50 [5]: 7.28; half-life [11]: 0.897 h; Vd [12]: 16.7 L/kg; pIC50 [6]: > 8.82; AUC(0-t) [13]: 47.9 ng·h/mL; AUC(0-t) [14]: 21.4 ng·h/mL; pIC50 [7]: > 9.30; pIC50 [15]: 8.35; bioavailability [16]: 14.9%; AUC(0-inf) [17]: 49 ng·h/mL; half-life [18]: 1.85 h; pIC50 [19]: 8.54; pIC50 [8]: 7.65; AUC(0-inf) [20]: 22.7 ng·h/mL
CNC(=O)c1cccc2cc(Oc3ccnc(NC(=O)c4csc(N5CCN(C)CC5)n4)c3)ccc12,8.12,–,–
CNC(=O)c1cccc2cc(Oc3ccnc4cc(OCC5(N)CC5)c(OC)cc34)ccc12 [LUCITANIB],–,–,pIC50 [21]: 6.62
CCNC(=O)N1CCCc2cc(Oc3ccnc(NC(=O)c4ccc(N5C[C@@H](C)N[C@@H](C)C5)cc4)c3)ccc21,6.88,6.93,–
CNC(=O)c1cccc2cc(Oc3ccnc(NC(=O)c4ccc(N5C[C@@H](C)N[C@@H](C)C5)cc4F)c3)ccc12,< 6.00,–,–
C=CC(=O)Nc1ccc(C(=O)Nc2cc(Oc3ccc4c(C(=O)NC)cccc4c3)ccn2)cc1,7.89,6.43,–
CNC(=O)c1cccc2cc(Oc3ccnc(NC(=O)c4ccc(N5CCNC(C)C5)cc4)c3)ccc12 (centres undefined),8.70,> 8.39,–
CNC(=O)c1cccc2cc(Oc3ccnc(NC(=O)c4ccc(N5CCN(CCO)CC5)cc4)c3)ccc12,8.72,8.24,–

SMILES,pIC50 [1],pIC50 [2],further results
CNC(=O)c1cccc2cc(Oc3ccnc(NC(=O)c4ccc(N5CCOCC5)cc4)c3)ccc12,8.92,8.03,–
CCNC(=O)Nc1cccc2cc(Oc3ccnc(NC(=O)c4ccc(N5C[C@@H](C)N[C@@H](C)C5)cc4)c3)ccc12,7.17,6.30,–
COC(=O)c1cccc2cc(Oc3ccnc(NC(=O)c4ccc(N5C[C@@H](C)N[C@@H](C)C5)cc4)c3)ccc12,8.34,6.80,–
CNC(=O)c1cccc2cc(Oc3ccnc(NC(=O)c4ccc(C5CCNCC5)cc4)c3)ccc12,8.80,7.14,–
CNC(=O)c1cccc2cc(Oc3ccnc(NC(=O)c4ccc(NCC5(O)CCOCC5)cc4)c3)ccc12,8.21,> 8.39,–
CNC(=O)c1cccc2cc(Oc3ccnc(NC(=O)c4ccc(N5C[C@@H](C)N[C@@H](C)C5)cc4OC)c3)ccc12,6.55,–,–
CNC(=O)c1cccc2cc(Oc3ccnc(NC(=O)c4coc(N5CCN(C)CC5)n4)c3)ccc12,8.55,–,–
CNC(=O)c1cccc2cc(Oc3ccnc(NC(=O)c4ccc(OCC5(N)CC5)cc4)c3)ccc12,8.13,7.26,–
CNC(=O)c1cccc2cc(Oc3ccnc(NC(=O)c4ccc(N5C[C@@H](C)N[C@@H](C)C5)cc4)c3)ccc12,8.68,7.83,–
CNC(=O)c1cccc2cc(Oc3ccnc(NC(=O)c4ccc(N5CCN(C)CC5)cc4)c3)ccc12.Cl.Cl,–,–,solubility [22]: Soluble; inhibition in vivo at 50 mg/kg [23]: 81%; Activity [24]: Non-Toxic; inhibition in vivo at 10 mg/kg [25]: 25%
CNC(=O)c1cccc2cc(Oc3ccnc(NC(=O)c4ccc(OCCN5CC(F)C5)cc4)c3)ccc12,8.44,8.29,–
CNC(=O)c1cccc2cc(Oc3ccnc(NC(=O)c4ccc(OCCN5CC(F)(F)C5)cc4)c3)ccc12,8.21,> 8.39,–
COc1cc(CCOc2ccnc(NC(=O)c3ccc(N4C[C@@H](C)N[C@@H](C)C4)cc3)c2)cc(OC)c1,< 6.00,–,–
CNC(=O)c1cccc2cc(Oc3ccnc(NC(=O)c4ccc(N5CC(C)OC(C)C5)cc4)c3)ccc12 (centres undefined),8.72,6.81,–
CNC(=O)c1cccc2cc(Oc3ccnc(NC(=O)c4cnc(N5C[C@@H](C)N[C@@H](C)C5)nc4)c3)ccc12,7.99,7.52,–
CNC(=O)c1cccc2cc(Oc3ccnc(NC(=O)c4ccc(OCCN5CCCC5)cc4)c3)ccc12,8.39,> 8.39,–

# — ChEMBL document CHEMBL4270521, “Design, synthesis and biological evaluation of a series of novel 2-benzamide-4-(6-oxy-N-methyl-1-naphthamide)-pyridine derivatives as potent fibroblast growth factor receptor (FGFR) inhibitors” (Eur J Med Chem, 2018)
